Here are results for 30 compounds from patent publication US9096504B2, “Controlled chemical release of hydrogen sulfide” (Washington State University, priority 2010, dated 2015).

Series [1] in a line: Methylene blue experiment for H2S release in PBS buffer in presence of cysteine or GSH. Type of series: physicochemical. Particulars: for GSH Peaking time / GSH [H2S] at peaking time / Cys Peaking time / Cys [H2S] at peaking time: PBS buffer pH 7.4, donor 150 μM; for GSH Peaking time / GSH [H2S] at peaking time: 1.5 mM GSH, experimental period 3 hours; for Cys Peaking time / Cys [H2S] at peaking time: 1.5 mM cysteine; for GSH Peaking time (min) / GSH [H2S] at peaking time (μM) / Cys Peaking time (min) / Cys [H2S] at peaking time (μM): footnote a: donors 40 μM and cysteine 4.0 mM. Here is the method:
Na2S Standard Curve for H2S Release
2.0 mM Na2S stock solution was prepared as described in previous section. Five aliquots of Na2S solution at 3.75 μL, 7.50 μL, 15.0 μL, 45.0 μL, and 112.5 μl were injected into the 4-mL vials containing H2O (1.0 mL), zinc acetate (1% w/v, 100 μL), N,N-dimethyl-1,4-phenylenediamine sulfate (200 μL, 20 mM) in 7.2 M HCl and ferric chloride (200 μL, 30 mM) in 1.2 M HCl, respectively. Stir the resultant solution for 15 minutes at room temperature. The absorbance (670 nm) of aliquots was determined using a UV-Vis spectrometer.
Cysteine stock solution in H2O (400 mM, 112.5 μL) and N-(benzoylthio)benzamide 2 stock solution in THF (40 mM, 112.5 μL) were added into PBS buffer solution (30 mL, pH=7.4) containing EDTA (50 mM, 60 μL), respectively. Every 3 minute, 1.0 mL of aliquots were taken to 4-mL vials containing, zinc acetate (1% w/v, 100 μL), N,N-dimethyl-1,4-phenylenediamine sulfate (200 μL, 20 mM) in 7.2 M HCl and ferric chloride (200 μL, 30 mM) in 1.2 M HCl within 3 hours. Then the absorbance (670 nm) was determined using a UV-Vis spectrometer.
The initial concentrations of H2S-donors shown below were 150 μM and the detection of H2S released from these molecules was measured in presence of 1.5 mM of cysteine or GSH, unless otherwise indicated.

With `O=C(NSC(=O)c1ccccc1)Nc1ccccc1`, in series [1], the “GSH Peaking time” value amounted to 30 min, the “GSH [H2S] at peaking time” value was determined as 23.4 µM, the “Cys Peaking time” value stood at 15 min and the “Cys [H2S] at peaking time” value came out at 33.9 µM.

Consider `O=C(NSC(=O)c1ccc(F)cc1)c1ccccc1` [Compound 3], for which, in series [1], the “GSH Peaking time” value is recorded as 36 min, the “GSH [H2S] at peaking time” value amounted to 122.6 µM, the “Cys Peaking time” value is given as 18 min and the “Cys [H2S] at peaking time” value stood at 143.1 µM.

Consider `O=C(NSC(=O)c1ccc(C(F)(F)F)cc1)c1ccccc1` [Compound 4], for which, in series [1], the “GSH Peaking time” value is 27 min, the “GSH [H2S] at peaking time” value is 59.5 µM, the “Cys Peaking time” value is 26 min and the “Cys [H2S] at peaking time” value was determined as 110.0 µM.

In the case of `O=C(NSC(=O)c1cccc(Cl)c1)c1ccccc1` [Compound 5], in series [1], the “GSH Peaking time” value stood at 36 min, the “GSH [H2S] at peaking time” value stood at 146.5 µM, the “Cys Peaking time” value is listed as 24 min and the “Cys [H2S] at peaking time” value came to 142.1 µM.

As to `Cc1ccccc1C(=O)SNC(=O)c1ccccc1` [Compound 6], in series [1], the “GSH Peaking time” value came out at 45 min, the “GSH [H2S] at peaking time” value was 61.9 µM, the “Cys Peaking time” value came to 34 min and the “Cys [H2S] at peaking time” value was 85.0 µM.

As to `Cc1cccc(C(=O)SNC(=O)c2ccccc2)c1` [Compound 7], in series [1], the “GSH Peaking time” value turned out to be 39 min, the “GSH [H2S] at peaking time” value turned out to be 131.0 µM, the “Cys Peaking time” value was 28 min and the “Cys [H2S] at peaking time” value turned out to be 141.8 µM.

Regarding `Cc1ccc(C(=O)SNC(=O)c2ccccc2)cc1` [Compound 8], in series [1], the “GSH Peaking time” value came out at 30 min, the “GSH [H2S] at peaking time” value came to 100.3 µM, the “Cys Peaking time” value was 27 min and the “Cys [H2S] at peaking time” value was found to be 93.9 µM.

Regarding `COc1ccccc1C(=O)SNC(=O)c1ccccc1` [Compound 9], in series [1], the “GSH Peaking time” value amounted to 48 min, the “GSH [H2S] at peaking time” value worked out at 48.3 µM, the “Cys Peaking time” value is given as 36 min and the “Cys [H2S] at peaking time” value was 52.8 µM.

Take `COc1cccc(C(=O)SNC(=O)c2ccccc2)c1` [Compound 10]: in series [1], the “GSH Peaking time” value is reported as 20 min, the “GSH [H2S] at peaking time” value is 133.6 µM, the “Cys Peaking time” value came out at 25 min and the “Cys [H2S] at peaking time” value came out at 111.6 µM.

In the case of `COc1ccc(C(=O)SNC(=O)c2ccccc2)cc1` [Compound 11], in series [1], the “GSH Peaking time” value is on record as 40 min, the “GSH [H2S] at peaking time” value came to 100.5 µM, the “Cys Peaking time” value turned out to be 27 min and the “Cys [H2S] at peaking time” value came out at 92.4 µM.

In the case of `COc1ccc(C(=O)SNC(=O)c2ccccc2)c(OC)c1` [Compound 12], in series [1], the “GSH Peaking time (min)” value is listed as 120 ^a min, the “GSH [H2S] at peaking time (μM)” value is 13.2 ^a μM, the “Cys Peaking time (min)” value is 50 ^a min and the “Cys [H2S] at peaking time (μM)” value is listed as 23.0 ^a μM.

Turning to `CN(C)c1ccc(C(=O)SNC(=O)c2ccccc2)cc1` [Compound 13], in series [1], the “GSH Peaking time (min)” value is recorded as 30 ^a min, the “GSH [H2S] at peaking time (μM)” value was 15.0 ^a μM, the “Cys Peaking time (min)” value was 22 ^a min and the “Cys [H2S] at peaking time (μM)” value is 17.5 ^a μM.

As to `O=C(NSC(=O)C1CCCCC1)c1ccccc1` [Compound 16], in series [1], the “GSH Peaking time” value came to 36 min, the “GSH [H2S] at peaking time” value came to 81.9 µM, the “Cys Peaking time” value is on record as 18 min and the “Cys [H2S] at peaking time” value was 72.4 µM.

Turning to `O=C(NSC(=O)C1CCCC1)c1ccccc1` [Compound 17], in series [1], the “GSH Peaking time” value worked out at 32 min, the “GSH [H2S] at peaking time” value was found to be 110.9 µM, the “Cys Peaking time” value was found to be 18 min and the “Cys [H2S] at peaking time” value is 100.6 µM.

For the compound `CC(C)C(=O)SNC(=O)c1ccccc1` [Compound 18], in series [1], the “GSH Peaking time” value amounted to 52 min, the “GSH [H2S] at peaking time” value amounted to 101.1 µM, the “Cys Peaking time” value came out at 36 min and the “Cys [H2S] at peaking time” value was 131.6 µM.

Take `CC(=O)SNC(=O)c1ccccc1` [Compound 19]: in series [1], the “GSH Peaking time” value is 18 min, the “GSH [H2S] at peaking time” value came out at 116.1 µM, the “Cys Peaking time” value is reported as 12 min and the “Cys [H2S] at peaking time” value came to 132.6 µM.

Take `CCC(=O)SNC(=O)c1ccccc1` [Compound 20]: in series [1], the “GSH Peaking time” value was determined as 35 min, the “GSH [H2S] at peaking time” value came to 103.6 µM, the “Cys Peaking time” value was 28 min and the “Cys [H2S] at peaking time” value was found to be 106.1 µM.

As to `CC(C)(C)C(=O)SNC(=O)c1ccccc1` [Compound 21], in series [1], the “GSH Peaking time” value is given as 90 min, the “GSH [H2S] at peaking time” value was 96.6 µM, the “Cys Peaking time” value was determined as 55 min and the “Cys [H2S] at peaking time” value came out at 106.4 µM.

With `CCCC(=O)SNC(=O)c1ccccc1` [Compound 22], in series [1], the “GSH Peaking time” value was found to be 40 min, the “GSH [H2S] at peaking time” value worked out at 122.3 µM, the “Cys Peaking time” value was 39 min and the “Cys [H2S] at peaking time” value came to 111.3 µM.

In the case of `Cc1ccccc1C(=O)NSC(=O)c1ccccc1` [Compound 24], in series [1], the “GSH Peaking time” value was determined as 30 min, the “GSH [H2S] at peaking time” value is 130.5 µM, the “Cys Peaking time” value came out at 24 min and the “Cys [H2S] at peaking time” value was 146.9 µM.

On to `O=C(NSC(=O)c1ccccc1)c1cccc(Cl)c1` [Compound 25], for which, in series [1], the “GSH Peaking time” value is reported as 27 min, the “GSH [H2S] at peaking time” value is 84.3 µM, the “Cys Peaking time” value stood at 26 min and the “Cys [H2S] at peaking time” value was determined as 83.6 µM.

For `O=C(NSC(=O)c1ccccc1)c1ccc(F)cc1` [Compound 26], in series [1], the “GSH Peaking time” value came out at 42 min, the “GSH [H2S] at peaking time” value is 104.1 µM, the “Cys Peaking time” value is given as 34 min and the “Cys [H2S] at peaking time” value stood at 110.6 µM.

Turning to `CC(=O)NSC(=O)c1ccccc1` [Compound 27], in series [1], the “GSH Peaking time” value came to 39 min, the “GSH [H2S] at peaking time” value is 149.6 µM, the “Cys Peaking time” value is reported as 30 min and the “Cys [H2S] at peaking time” value was determined as 145.4 µM.

For the compound `CCC(=O)NSC(=O)c1ccccc1` [Compound 28], in series [1], the “GSH Peaking time” value stood at 50 min, the “GSH [H2S] at peaking time” value came to 116.6 µM, the “Cys Peaking time” value worked out at 34 min and the “Cys [H2S] at peaking time” value turned out to be 120.9 µM.

Turning to `CCCC(=O)NSC(=O)c1ccccc1` [Compound 29], in series [1], the “GSH Peaking time” value is recorded as 39 min, the “GSH [H2S] at peaking time” value amounted to 98.9 µM, the “Cys Peaking time” value is 30 min and the “Cys [H2S] at peaking time” value was 102.8 µM.

Consider `O=C(Cc1ccccc1)SNC(=O)c1ccccc1` [Compound 30], for which, in series [1], the “GSH Peaking time” value is 44 min, the “GSH [H2S] at peaking time” value was found to be 104.9 µM, the “Cys Peaking time” value came to 30 min and the “Cys [H2S] at peaking time” value was found to be 108.6 µM.

`CC(C(=O)SNC(=O)c1ccccc1)c1ccccc1` (centres unmarked) [Compound 31]: in series [1], the “GSH Peaking time” value came out at 52 min, the “GSH [H2S] at peaking time” value is 103.8 µM, the “Cys Peaking time” value turned out to be 36 min and the “Cys [H2S] at peaking time” value is 130.4 µM.

With `O=C(NSC(=O)C(c1ccccc1)c1ccccc1)c1ccccc1` [Compound 32], in series [1], the “Cys Peaking time” value is 60 min and the “Cys [H2S] at peaking time” value was determined as 45.6 µM.

For `COC(=O)C(CSSC(=O)c1ccccc1)NC(=O)c1ccccc1` (centres unmarked) [Compound 33], in series [1], the “GSH Peaking time” value was 45 min, the “GSH [H2S] at peaking time” value is 18.3 µM, the “Cys Peaking time” value is 35 min and the “Cys [H2S] at peaking time” value is 25.8 µM.

In turn, `CC(=O)NC(C(=O)NCc1ccccc1)C(C)(C)SSC(=O)c1ccccc1` (centres unmarked) [Compound 34] came in with a melting point of 143 to 145 °C. Moreover, in series [1], the “GSH Peaking time” value was determined as 39 min, the “GSH [H2S] at peaking time” value was found to be 137 µM, the “Cys Peaking time” value is 33 min and the “Cys [H2S] at peaking time” value is 149 µM.
